Counter-ions that a name gives are not always drawn.
Assays:
[1] = test system: adjuvant-induced arthritis; assay: modification of the inhibition of adjuvant-induced arthritis test (adjuvant arthritis, AA); assay type: in vivo; settings: oral
Description: (§1) Anti-inflammatory activity was determined using (1) the inhibition of carrageenin-induced foot edema test essentially described by Van Arman et al., J. Pharmacol. Exptl. Therap. 150, 328 (1965) as modified by Winter et al., Proc. Soc. Exp. Biol. and Med. 111, 544 (1962) and (2) a modification of the inhibition of adjuvant-induced arthritis test described by Pierson, J. Chronic Diseases 16, 863 (1963) and Glenn et al., Am. J. Vet. Res. 26, 1180 (1965). […] Data so-obtained, given in terms of percent inhibition at a dose expressed in terms of […] (μM)/kg., are given below. All data were obtained on oral administration.

[2] = test system: carrageenin-induced foot edema; assay: inhibition of carrageenin-induced foot edema test (carrageenin edema, CE); assay type: in vivo; settings: oral
Description: as §1

[3] = dose 0.01 (millimoles (μM)/kg [sic])
[4] = dose 0.04 millimoles (μM)/kg [sic], hydrochloride
[5] = dose 0.16 millimoles (μM)/kg [sic], hydrochloride
[6] = dose 0.08 (millimoles (μM)/kg [sic]), hydrochloride
[7] = dose 0.324 millimoles (μM)/kg [sic], hydrochloride
[8] = dose 0.16 millimoles (μM)/kg [sic]
[9] = dose 0.08 (millimoles (μM)/kg [sic])
[10] = dose 0.324 millimoles (μM)/kg [sic]
[11] = dose 0.005 (printed millimoles (μM)/kg)
[12] = dose 0.02 (printed millimoles (μM)/kg)

SMILES | AA (% Inhib./μM/kg.) [1, 3] [%] | AA (% Inhib./μM/kg.) [1, 5] [%] | CE (% Inhib./μM/kg.) [2, 6] [%] | CE (% Inhib./μM/kg.) [2, 7] [%] | CE (% Inhib./μM/kg.) [2, 9] [%] | CE (% Inhib./μM/kg.) [2, 10] [%] | other results
COc1ccc2cc(C(C)CN3CCCCC3CC3CCCCC3)ccc2c1.Cl (stereo not drawn) [1 (α-Isomer), 2-cyclohexylmethyl-1-[2-(6-methoxy-2-naphthyl)-2-methylethyl]piperidine hydrochloride] | 0 | 86 | 14 | 40 | – | – | AA (% Inhib./μM/kg.) [1, 4]: 8%
COc1ccc2cc(C(C)CN3CCCCC3CC3CCCCC3)ccc2c1.Cl (stereo not drawn) [1 (β-Isomer), 2-cyclohexylmethyl-1-[2-(6-methoxy-2-naphthyl)-2-methylethyl]piperidine hydrochloride] | 0 | 89 | 16 | 47 | – | – | AA (% Inhib./μM/kg.) [1, 4]: 12%
COc1ccc2cc(C(C)CN3CCCCC3CC3CCCCC3)ccc2c1.Cl (stereo not drawn) [1 (γ-Isomer), 2-cyclohexylmethyl-1-[2-(6-methoxy-2-naphthyl)-2-methylethyl]-piperidine hydrochloride] | – | 86 | 24 | 45 | – | – | AA (% Inhib./μM/kg.) ([1]; dose 0.018 (printed millimoles (μM)/kg)): 2%; AA (% Inhib./μM/kg.) ([1]; dose 0.053 (printed millimoles (μM)/kg)): 49%
COc1ccc2cc(C(C)CN3CCCCC3C3CCCCC3)ccc2c1 (stereo not drawn) [Example 2, 2-cyclohexyl-1-[2-(6-methoxy-2-naphthyl)-2-methylethyl-]piperidine hydrochloride] | 17 | – | – | – | 35 | 69 | AA (% Inhib./μM/kg.) ([1]; dose 0.04 millimoles (μM)/kg [sic]): 31%; AA (% Inhib./μM/kg.) [1, 8]: 61%
COc1ccc2cc(C(C)CN3CCCCC3CCC3CCCCC3)ccc2c1 (stereo not drawn) [Example 3, 2-(2-cyclohexylethyl)-1-[2-(6-methoxy-2-naphthyl)-2-methylethyl]-piperidinehydrochloride] | – | – | – | – | 66 | 52 | AA (% Inhib./μM/kg.) [1, 11]: 0%; AA (% Inhib./μM/kg.) [1, 12]: 40%; AA (% Inhib./μM/kg.) [1, 9]: 16%
COc1ccc2cc(C(C)CN3CCC(CCC4CCCCC4)CC3)ccc2c1 (stereo not drawn) [Example 4, 4-(2-cyclohexylethyl)-1-[2-(6-methoxy-2-naphthyl)-2-methylethyl]-piperidine] | – | – | – | – | 22 | 38 | AA (% Inhib./μM/kg.) [1, 11]: 0%; AA (% Inhib./μM/kg.) [1, 12]: 0%; AA (% Inhib./μM/kg.) [1, 9]: 34%
COc1ccc2cc(CCN3CCCCC3CC3CCCCC3)ccc2c1 (stereo not drawn) [Example 5, 2-cyclohexylmethyl-1-[2-(6-methoxy-2-naphthyl)ethyl]piperidine] | – | – | – | – | 29 | 68 | AA (% Inhib./μM/kg.) [1, 10]: 55%
CCN(CC)CCCC(C)NCC(C)c1ccc2cc(OC)ccc2c1 (stereo not drawn) [Example 6, N-[2-(6-methoxy-2-naphthyl)-2-methylethyl]-N-[5-(N',N'-diethyl-amino)-2-pentyl]amine] | – | – | – | – | 28 | 26 | AA (% Inhib./μM/kg.) [1, 8]: 73%

Source: patent US4005093A, “2-Naphthyl-lower-alkylamines” (Sterling Drug Inc., priority 1975, dated 1977)
